Test results as given in patent US10604554B2, “Double-acylated GLP-1 derivatives” (Novo Nordisk A/S, priority 2012, dated 2020).
Where two headings read alike, the source gives them in different places.

Assays:
human GLP-1 receptor [1] = target: T1, human GLP-1 receptor (Homo sapiens, UniProt P43220); assay: In vitro potency (CRE luciferase; whole cells); format: cell-based; set-up: EC50/pM (ratio 1% HSA/0% HSA): unit not given here; settings: for EC50: BHK cells; for EC50/pM (ratio 1% HSA/0% HSA): ratio of EC50 at 1% HSA to EC50 at 0% HSA
T1 construct: expressed in transfected cells; host or cells: BHK cells, clone FCW467-12A/KZ10-1 (parent line BHKTS13), further transfected with CRE luciferase
T1 sequence (P43220 24-463): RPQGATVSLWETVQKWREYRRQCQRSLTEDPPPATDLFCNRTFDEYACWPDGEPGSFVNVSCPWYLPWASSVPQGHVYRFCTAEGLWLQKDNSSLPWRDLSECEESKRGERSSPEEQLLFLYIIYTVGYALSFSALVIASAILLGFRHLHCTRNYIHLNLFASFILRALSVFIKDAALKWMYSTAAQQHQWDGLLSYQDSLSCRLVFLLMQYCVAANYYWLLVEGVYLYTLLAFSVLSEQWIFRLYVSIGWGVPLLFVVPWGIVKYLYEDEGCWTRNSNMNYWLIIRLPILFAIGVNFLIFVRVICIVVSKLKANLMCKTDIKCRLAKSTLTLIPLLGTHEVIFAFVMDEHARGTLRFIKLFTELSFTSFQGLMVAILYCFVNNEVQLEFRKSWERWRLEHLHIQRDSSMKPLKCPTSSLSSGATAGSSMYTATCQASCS
Procedure, shortened: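 Stably transfected BHK cells carrying human GLP-1R and a CRE–firefly luciferase reporter, 5×10^3 cells/well in assay medium, run with 0% or 1% HSA in assay buffer.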

human GLP-1 receptor [2] = target: T1, human GLP-1 receptor; assay: GLP-1 receptor binding (SPA, displacement of 125I-GLP-1)
Procedure, shortened: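 Membranes from a stably transfected hamster cell line, 5-10 ug protein/sample, with WGA SPA beads and [125I]-GLP-1(7-36)NH2 at 0.06 nM final. Incubated 120 min at 30 °C with shaking, then counted.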

[3] = In vitro potency (CRE luciferase) EC50 (0% HSA), 0% HSA
[4] = In vitro potency (CRE luciferase) EC50 (1% HSA), 1% HSA
[5] = Receptor binding affinity IC50 (high HSA), 2.0% HSA (high albumin)
[6] = Receptor binding affinity IC50 (low HSA), 0.001% HSA (low albumin)

CC[C@H](C)[C@H](NC(=O)[C@H](Cc1ccccc1)NC(=O)[C@H](CCC(=O)O)NC(=O)[C@H](CCCCNC(=O)[C@@H](N)CCCCNC(=O)COCCOCCNC(=O)COCCOCCNC(=O)CC[C@H](NC(=O)CCCCCCCCCCCOc1ccc(C(=O)O)cc1)C(=O)O)NC(=O)[C@H](C)NC(=O)[C@H](C)NC(=O)[C@H](CCC(N)=O)NC(=O)CNC(=O)[C@H](CCC(=O)O)NC(=O)[C@H](CC(C)C)NC(=O)[C@H](Cc1ccc(O)cc1)NC(=O)[C@H](CO)NC(=O)[C@H](CO)NC(=O)[C@@H](NC(=O)[C@H](CC(=O)O)NC(=O)[C@H](CO)NC(=O)[C@@H](NC(=O)[C@H](Cc1ccccc1)NC(=O)[C@@H](NC(=O)CNC(=O)[C@H](CCC(=O)O)NC(=O)C(C)(C)NC(=O)[C@@H](N)Cc1c[nH]cn1)[C@@H](C)O)[C@@H](C)O)C(C)C)C(=O)N[C@@H](C)C(=O)N[C@@H](Cc1c[nH]c2ccccc12)C(=O)N[C@@H](CC(C)C)C(=O)N[C@H](C(=O)N[C@@H](CCCNC(=N)N)C(=O)NCC(=O)N[C@@H](CCCNC(=N)N)C(=O)N[C@@H](CCCCNC(=O)[C@@H](N)CCCCNC(=O)COCCOCCNC(=O)COCCOCCNC(=O)CC[C@H](NC(=O)CCCCCCCCCCCOc1ccc(C(=O)O)cc1)C(=O)O)C(=O)O)C(C)C [Example 14, N^ε26-[(2S)-2-amino-6-[[2-[2-[2-[[2-[2-[2-[[(4S)-4-carboxy-4-[12-(4-carboxyphenoxy)dodecanoylamino]butanoyl]amino]ethoxy]ethoxy]acetyl]amino]ethoxy]ethoxy]acetyl]amino]hexanoyl], N^ε37-[(2S)-2-amino-6-[[2-[2-[2-[[2-[2-[2-[[(4S)-4-carboxy-4-[12-(4-carboxyphenoxy)dodecanoylamino]butanoyl]amino]ethoxy]ethoxy]acetyl]amino]ethoxy]ethoxy]acetyl]amino]hexanoyl]-[Aib^8,Arg^34, Lys^37]-GLP-1-(7-37)-peptide]
EC50 (human GLP-1 receptor [1]; [3]): 4.8 pM | EC50 (human GLP-1 receptor [1]; [4]): 76 pM | EC50/pM (ratio 1% HSA/0% HSA) (human GLP-1 receptor [1]): 16 | IC50 (human GLP-1 receptor [2]; [5]): 154000 pM | IC50 (human GLP-1 receptor [2]; [6]): 300 pM

CC[C@H](C)[C@H](NC(=O)[C@H](Cc1ccccc1)NC(=O)[C@H](CCC(=O)O)NC(=O)[C@H](CCCCNC(=O)[C@@H](N)CCCCNC(=O)CC[C@H](NC(=O)CC[C@H](NC(=O)CC[C@H](NC(=O)CCCCCCCCCCCOc1ccc(C(=O)O)cc1)C(=O)O)C(=O)O)C(=O)O)NC(=O)[C@H](C)NC(=O)[C@H](C)NC(=O)[C@H](CCC(N)=O)NC(=O)CNC(=O)[C@H](CCC(=O)O)NC(=O)[C@H](CC(C)C)NC(=O)[C@H](Cc1ccc(O)cc1)NC(=O)[C@H](CO)NC(=O)[C@H](CO)NC(=O)[C@@H](NC(=O)[C@H](CC(=O)O)NC(=O)[C@H](CO)NC(=O)[C@@H](NC(=O)[C@H](Cc1ccccc1)NC(=O)[C@@H](NC(=O)CNC(=O)[C@H](CCC(=O)O)NC(=O)C(C)(C)NC(=O)[C@@H](N)Cc1c[nH]cn1)[C@@H](C)O)[C@@H](C)O)C(C)C)C(=O)N[C@@H](C)C(=O)N[C@@H](Cc1c[nH]c2ccccc12)C(=O)N[C@@H](CC(C)C)C(=O)N[C@H](C(=O)N[C@@H](CCCNC(=N)N)C(=O)NCC(=O)N[C@@H](CCCNC(=N)N)C(=O)N[C@@H](CCCCNC(=O)[C@@H](N)CCCCNC(=O)CC[C@H](NC(=O)CC[C@H](NC(=O)CC[C@H](NC(=O)CCCCCCCCCCCOc1ccc(C(=O)O)cc1)C(=O)O)C(=O)O)C(=O)O)C(=O)O)C(C)C [Example 17, N^ε26-[(2S)-2-amino-6-[[(4S)-4-carboxy-4-[[(4S)-4-carboxy-4-[[(4S)-4-carboxy-4-[12-(4-carboxyphenoxy)dodecanoylamino]butanoyl]amino]butanoyl]amino]butanoyl]amino]hexanoyl], N^ε37-[(2S)-2-amino-6-[[(4S)-4-carboxy-4-[[(4S)-4-carboxy-4-[[(4S)-4-carboxy-4-[12-(4-carboxyphenoxy)dodecanoylamino]butanoyl]amino]butanoyl]amino]butanoyl]amino]hexanoyl]-[Aib^8,Arg^34,Lys^37]-GLP-1-(7-37)-peptide]
EC50 (human GLP-1 receptor [1]; [3]): 3.3 pM | IC50 (human GLP-1 receptor [2]; [5]): 632000 pM | IC50 (human GLP-1 receptor [2]; [6]): 420 pM

CC[C@H](C)[C@H](NC(=O)[C@H](Cc1ccccc1)NC(=O)[C@H](CCC(=O)O)NC(=O)[C@H](CCCCNC(=O)[C@@H](N)CCCCNC(=O)CC[C@H](NC(=O)CC[C@H](NC(=O)CC[C@H](NC(=O)CCCCCCCCCCCCCCC(=O)O)C(=O)O)C(=O)O)C(=O)O)NC(=O)[C@H](C)NC(=O)[C@H](C)NC(=O)[C@H](CCC(N)=O)NC(=O)CNC(=O)[C@H](CCC(=O)O)NC(=O)[C@H](CC(C)C)NC(=O)[C@H](Cc1ccc(O)cc1)NC(=O)[C@H](CO)NC(=O)[C@H](CO)NC(=O)[C@@H](NC(=O)[C@H](CC(=O)O)NC(=O)[C@H](CO)NC(=O)[C@@H](NC(=O)[C@H](Cc1ccccc1)NC(=O)[C@@H](NC(=O)CNC(=O)[C@H](CCC(=O)O)NC(=O)C(C)(C)NC(=O)[C@@H](N)Cc1c[nH]cn1)[C@@H](C)O)[C@@H](C)O)C(C)C)C(=O)N[C@@H](C)C(=O)N[C@@H](Cc1c[nH]c2ccccc12)C(=O)N[C@@H](CC(C)C)C(=O)N[C@H](C(=O)N[C@@H](CCCNC(=N)N)C(=O)NCC(=O)N[C@@H](CCCNC(=N)N)C(=O)N[C@@H](CCCCNC(=O)[C@@H](N)CCCCNC(=O)CC[C@H](NC(=O)CC[C@H](NC(=O)CC[C@H](NC(=O)CCCCCCCCCCCCCCC(=O)O)C(=O)O)C(=O)O)C(=O)O)C(=O)O)C(C)C [Example 13, N^ε26-[(2S)-2-amino-6-[[(4S)-4-carboxy-4-[[(4S)-4-carboxy-4-[[(4S)-4-carboxy-4-(15-carboxypentadecanoylamino)butanoyl]amino]butanoyl]amino]butanoyl]amino]hexanoyl], N^ε37-[(2S)-2-amino-6-[[(4S)-4-carboxy-4-[[(4S)-4-carboxy-4-[[(4S)-4-carboxy-4-(15-carboxypentadecanoylamino)butanoyl]amino]butanoyl]amino]butanoyl]amino]hexanoyl]-[Aib^8,Arg^34,Lys^37]-GLP-1-(7-37)-peptide]
EC50 (human GLP-1 receptor [1]; 0% HSA, read-out: In vitro potency (CRE luciferase) EC50 (0% HSA)): 2.2 pM | EC50 (human GLP-1 receptor [1]; [4]): 1380 pM | EC50/pM (ratio 1% HSA/0% HSA) (human GLP-1 receptor [1]): 659 | IC50 (human GLP-1 receptor [2]; 0.001% HSA (low albumin), read-out: Receptor binding affinity IC50 (low HSA)): 760 pM | IC50 (high HSA) (human GLP-1 receptor [2]; Receptor binding affinity IC50 (high HSA), 2.0% HSA (high albumin), heading: Receptor binding affinity IC50): 545000 pM

CC[C@H](C)[C@H](NC(=O)[C@H](Cc1ccccc1)NC(=O)[C@H](CCC(=O)O)NC(=O)[C@H](CCCCNC(=O)[C@@H](N)CCCCNC(=O)COCCOCCNC(=O)CC[C@H](NC(=O)CC[C@H](NC(=O)CCCCCCCCCCCOc1ccc(C(=O)O)cc1)C(=O)O)C(=O)O)NC(=O)[C@H](C)NC(=O)[C@H](C)NC(=O)[C@H](CCC(N)=O)NC(=O)CNC(=O)[C@H](CCC(=O)O)NC(=O)[C@H](CC(C)C)NC(=O)[C@H](Cc1ccc(O)cc1)NC(=O)[C@H](CO)NC(=O)[C@H](CO)NC(=O)[C@@H](NC(=O)[C@H](CC(=O)O)NC(=O)[C@H](CO)NC(=O)[C@@H](NC(=O)[C@H](Cc1ccccc1)NC(=O)[C@@H](NC(=O)CNC(=O)[C@H](CCC(=O)O)NC(=O)C(C)(C)NC(=O)[C@@H](N)Cc1c[nH]cn1)[C@@H](C)O)[C@@H](C)O)C(C)C)C(=O)N[C@@H](C)C(=O)N[C@@H](Cc1c[nH]c2ccccc12)C(=O)N[C@@H](CC(C)C)C(=O)N[C@H](C(=O)N[C@@H](CCCNC(=N)N)C(=O)NCC(=O)N[C@@H](CCCNC(=N)N)C(=O)N[C@@H](CCCCNC(=O)[C@@H](N)CCCCNC(=O)COCCOCCNC(=O)CC[C@H](NC(=O)CC[C@H](NC(=O)CCCCCCCCCCCOc1ccc(C(=O)O)cc1)C(=O)O)C(=O)O)C(=O)O)C(C)C [Example 15, N^ε26-[(2S)-2-amino-6-[[2-[2-[2-[[(4S)-4-carboxy-4-[[(4S)-4-carboxy-4-[12-(4-carboxyphenoxy)dodecanoylamino]butanoyl]amino]butanoyl]amino]ethoxy]ethoxy]acetyl]amino]hexanoyl], N^ε37-[(2S)-2-amino-6-[[2-[2-[2-[[(4S)-4-carboxy-4-[[(4S)-4-carboxy-4-[12-(4-carboxyphenoxy)dodecanoylamino]butanoyl]amino]butanoyl]amino]ethoxy]ethoxy]acetyl]amino]hexanoyl]-[Aib^8,Arg^34,Lys^37]-GLP-1-(7-37)-peptide]
EC50 (human GLP-1 receptor [1]; [3]): 3.7 pM | EC50 (human GLP-1 receptor [1]; [4]): 327 pM | EC50/pM (ratio 1% HSA/0% HSA) (human GLP-1 receptor [1]): 93 | IC50 (human GLP-1 receptor [2]; [5]): 303000 pM | IC50 (human GLP-1 receptor [2]; [6]): 350 pM
